Test results taken from publication PMC10177380 (Cancers, 2023).
Several values for one entry are separate records, joined by “and”; a condition that tells them apart may be missing. Equal entries are not always repeated. Where two headings read alike, the source gives them in different places.

Assays:
HT29 colon = assay: MTT growth inhibition, 72 h, HT29; assay type: cell-based, human
U87 glioblastoma = assay: MTT growth inhibition, 72 h, U87; assay type: cell-based
A2780 ovarian = assay: MTT growth inhibition, 72 h, A2780; assay type: cell-based
H460 lung = assay: MTT growth inhibition, 72 h, H460; assay type: cell-based; conditions: for GI50: H460, MTT, 72 h
A431 skin = assay: MTT growth inhibition, 72 h, A431; assay type: cell-based
Du145 prostate = assay: MTT growth inhibition, 72 h, Du145; assay type: cell-based; conditions: for GI50: Du145, MTT, 72 h
BE2C neuroblastoma = assay: MTT growth inhibition, 72 h, BE2C; assay type: cell-based; conditions: for GI50: BE2C, MTT, 72 h
SJG2 glioblastoma = assay: MTT growth inhibition, 72 h, SJG2; assay type: cell-based
MIA pancreas = assay: MTT growth inhibition, 72 h, MIA; assay type: cell-based
[1] = tested on: non-tumour derived MCF10A breast line; assay: MTT growth inhibition, 72 h, MCF10A; assay type: cell-based
[2] = tested on: ADDP ovarian variant (cisplatin-resistant A2780 clone); assay: MTT growth inhibition, 72 h, ADDP; assay type: cell-based; conditions: for GI50: ADDP, MTT, 72 h
multiple cell lines = assay: MTT growth inhibition, over all cell lines tested; assay type: cell-based; conditions: mean over all cell lines tested; read-out: Mean GI50 Values
[3] = Reduction with ascorbic acid (AsA) in PBS followed by 1H-NMR and 1D-195Pt-NMR; assay type: physicochemical; conditions: estimated 100% reduction, PBS in D2O, 37 °C
Experimental: The reduction behaviour of 1–6 was probed via ^1H-NMR and 1D-^195Pt-NMR spectroscopy, as previously described (see Supplementary Materials).
The reduction behaviour of 1–6 was monitored by ^1H-NMR and 1D-^195Pt-NMR spectroscopy using previously established methods. Prior to the reduction measurements, each metal complex was dissolved with PBS in D2O only.
Based on the initial 1D-^195Pt-NMR spectra acquired (Figures S62 and S63), the structural integrity of the complexes was retained, and no signs of reduction were observed, thus also confirming that the PBS had no effect on the complexes. Subsequently, AsA was added in each solution containing the metal complex, PBS and D2O. Then, sequential ^1H-NMR experiments were undertaken for 1 h, followed by final 1D-^195Pt-NMR experiments measured within the regions of 400 and −2800 ppm (Figures S64–S75). The approximate time points for 1–6 at which an estimated 50 and 100% reduction had occurred, in the presence of AsA, as represented by T50% and T100%, are summarised in Table 8.
A sequence of 1H-NMR experiments was carried out for 1 h at 37 °C, followed by 1D-195Pt-NMR within the regions of –2800 and 400 ppm. An amount of 10 mM PBS (~7.4 pH) was transferred to a vial and reduced to dryness through rotary evaporation. AsA (~1 mg) was combined with the metal complex (~5 mg) and transferred to the vial containing the dried PBS. 600 μL of D2O was then added to the vial to dissolve the complex, AsA and the PBS together. Each reaction was followed at 37 °C until the complete reduction […]
The cell lines tested were: HT29 colon, U87 glioblastoma, MCF-7 breast, A2780 ovarian, H460 lung, A431 skin, Du145 prostate, BE2-C neuroblastoma, SJ-G2 glioblastoma, MIA pancreas, ADDP ovarian variant, and the non-tumour derived MCF10A breast line. In […]
agents were prepared in DMSO (30 mM stock solutions) and stored at −20 °C until use.
All cell lines were cultured in a humidified atmosphere 5% carbon dioxide at 37 °C. The cancer cell lines were maintained in Dulbecco’s modified Eagle’s medium (DMEM) (Trace Biosciences, Sydney, NSW, Australia) supplemented with 10% foetal bovine serum, 10 mM sodium bicarbonate penicillin (100 IU mL−1), streptomycin (100 μg mL−1) and glutamine (4 mM). The non-cancer MCF10A cell line was cultured in DMEM:F12 (1:1) cell culture media, 5% heat inactivated horse serum, supplemented with penicillin (50 IU mL−1), streptomycin (50 μg mL−1), 20 mM 4-(2-hydroxyethyl)-1-piperazineethanesulfonic acid (HEPES), L-glutamine (2 mM), epidermal growth factor (20 ng mL−1), hydrocortisone (500 ng mL−1), cholera toxin (100 ng mL−1) and insulin (10 μg mL−1). Cytotoxicity was determined by plating cells in duplicate in […] medium at a density of 2500 – 4000 cells per well in 96 well plates. On day 0 (24 h after plating) when the cells were in logarithmic growth, 100 μL of medium with or without the test agent

HT29 colon cells = assay: ROS production, DCFDA/H2DCFDA cellular ROS assay; assay type: cell-based, human; conditions: treatment at GI50 concentration (TBHP positive control 20 μM)
Experimental: To determine the presence of ROS in treated cells, a DCFDA/H2DCFDA-cellular ROS Assay Kit (Abcam, Cambridge, MA, USA) was utilised, as previously reported. The ROS potential of platinum(II) precursors and platinum(IV) scaffolds, which were determined using the same method, were also presented in this study for comparison.
Additionally, the ROS potential of the platinum(II) precursors and platinum(IV) scaffolds was determined previously and was presented here to allow for comparison (Table 10 and Figure 13). […] Treatment with the complexes and ligands was completed at each specific GI50 concentration. […]
dimethylthiazol-2-yl]-2,5-diphenyltetrazolium bromide) assay and absorbance was read at 540 nm. An eight-point dose response curve was produced from which the GI50 value was calculated, representing the drug concentration at which cell growth was inhibited by 50% based on the difference between the optical density values on day 0 and those at the end of drug exposure.
4. Reactive Oxygen Species (ROS) Potential
A total of 25,000 cells/mL of HT29 cells in DMEM were seeded in 96-well plates. Cells were washed with 1X kit buffer, and then stained with 25 μM 2’,7’-dichlorofluorescein diacetate (DCFH-DA) and incubated for 45 min. DCFH-DA was then removed, and cells were then re-washed with 1X kit buffer, after which phenol red free media was added.
Cells were then treated with a GI50 drug concentration for each complex. The plates were directly scanned to measure fluorescence (relative fluorescence units (RFU)) at different time points using the Glo-Max®-Multimode microplate reader (Promega Corporation, Alexandra, VIC, Australia) at an excitation/emission of 485/535 nm. […]

Row | SMILES | GI50 (HT29 colon) [nM] | GI50 (U87 glioblastoma) [nM] | GI50 (A2780 ovarian) [nM] | GI50 (H460 lung) [nM] | GI50 (A431 skin) [nM] | GI50 (Du145 prostate) [nM] | GI50 (BE2C neuroblastoma) [nM] | GI50 (SJG2 glioblastoma) [nM] | GI50 (MIA pancreas) [nM] | GI50 [1] [nM] | GI50 [2] [nM] | GI50 (multiple cell lines) [nM] | Reduction Times T100% [3] [min] | ROS Production (HT29 colon cells; HT29, 24 h) [RFU] | ROS Production (HT29 colon cells; HT29, 48 h) [RFU] | ROS Production (HT29 colon cells; HT29, 72 h) | other results
1 | COc1ccc2c(c1)c(CC(=O)OCC(=O)[O][Pt-2]13([OH])([NH2+][C@H]4CCCC[C@@H]4[NH2+]1)[n+]1cccc4cc(C)c5ccc[n+]3c5c41)c(C)n2C(=O)c1ccc(Cl)cc1 [Complex 5, [Pt^IV(5-Mephen)(SS-DACH)(ACE)(OH)]^2+] | 13 ± 8 | 140 ± 8 | 30 ± 12 | 43 ± 8 | 60 ± 45 | 1.3 ± 0.4 | 250 ± 33 | 200 ± 21 | 29 ± 14 | 20 ± 5 | 9.3 ± 2 | 70 ± 15 | 10 to 15 | 313 ± 11 | 305 ± 10 | 192 RFU and 192 ± 7 RFU | fold more potent than carboplatin (Du145 prostate): 11,540 fold; fold more potent than cisplatin (Du145 prostate): at least 920 fold; fold more potent than its platinum(II) precursor (Du145 prostate): 17 fold; fold more potent than oxaliplatin (Du145 prostate): 2230 fold; fold decrease of GI50 relative to the platinum(IV) scaffold (BE2C neuroblastoma): 5.6 fold; fold more potent than cisplatin [2]: 3000 fold
2 | COc1ccc2c(c1)c(CC(=O)OCC(=O)[O][Pt-2]13([OH])([NH2+][C@H]4CCCC[C@@H]4[NH2+]1)[n+]1cccc4c(C)c(C)c5ccc[n+]3c5c41)c(C)n2C(=O)c1ccc(Cl)cc1 [Complex 6, [Pt^IV(5,6-Me2phen)(SS-DACH)(ACE)(OH)]^2+] | 4.7 ± 4 | 28 ± 3 | 10 ± 4 | 16 ± 2 | 16 ± 12 | 0.22 ± 0.1 | 160 ± 19 | 130 ± 25 | 7.8 ± 4 | 3.4 ± 1 | 1.3 ± 0.5 | 32 ± 7 | 5 | 344 ± 17 | 312 ± 13 | 202 RFU and 202 ± 10 RFU | fold more potent than the platinum(IV) scaffold (H460 lung): ~12 fold; fold more potent than its platinum(II) precursor (Du145 prostate; Du145): ~21 fold
